Legend:
Format in all cases: in vivo
[1] = tested on: wheat (Triticum aestivum); experiment: Test A postemergence, wheat; conditions: Postemergence, 0 to 100 scale (0 no effect, 100 complete control)
Outline: (§1)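 Preemergence: seeded pots of loam plus sand received a directed soil spray. Postemergence: seedlings at one to two leaves, 2 to 10 cm high, were oversprayed. Each compound was formulated in a non-phytotoxic solvent mix that included a surfactant.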

[2] = tested on: ragweed (common ragweed, Ambrosia artemisiifolia); experiment: Test A preemergence, ragweed; conditions: Preemergence; for Plant response rating, Ragweed: 0 to 100 scale (0 no effect, 100 complete control); for Ragweed plant response rating: visual injury on 0 to 100 scale (0 no effect, 100 complete control), approximately 10 days
Outline: as §1

[3] = tested on: barnyardgrass (Echinochloa crus-galli); experiment: Test A postemergence, barnyardgrass; conditions: Postemergence, 0 to 100 scale (0 no effect, 100 complete control)
Outline: as §1

kochia (Bassia scoparia) [4] = experiment: Test A preemergence, kochia; conditions: Preemergence; for Plant response rating, Kochia: 0 to 100 scale (0 no effect, 100 complete control); for Kochia plant response rating: visual injury on 0 to 100 scale (0 no effect, 100 complete control), approximately 10 days
Outline: as §1

[5] = tested on: Ryegrass, Italian (Italian ryegrass, Lolium multiflorum); experiment: Test A preemergence, Ryegrass, Italian; conditions: Preemergence; for Plant response rating, Ryegrass, Italian: 0 to 100 scale (0 no effect, 100 complete control); for Ryegrass, Italian plant response rating: visual injury on 0 to 100 scale (0 no effect, 100 complete control), approximately 10 days
Outline: as §1

[6] = tested on: blackgrass (Alopecurus myosuroides); experiment: Test A postemergence, blackgrass; conditions: Postemergence, 0 to 100 scale (0 no effect, 100 complete control)
Outline: as §1

[7] = tested on: pigweed (Amaranthus retroflexus); experiment: Test A preemergence, pigweed; conditions: for Plant response rating, Pigweed: 0 to 100 scale (0 no effect, 100 complete control); for Pigweed plant response rating: visual injury on 0 to 100 scale (0 no effect, 100 complete control), approximately 10 days
Outline: as §1

[8] = tested on: Foxtail, Giant (giant foxtail, Setaria faberi); experiment: Test A preemergence, Foxtail, Giant; conditions: Preemergence; for Plant response rating, Foxtail, Giant: 0 to 100 scale (0 no effect, 100 complete control); for Foxtail, Giant plant response rating: visual injury on 0 to 100 scale (0 no effect, 100 complete control), approximately 10 days
Outline: as §1

[9] = tested on: Foxtail, Giant (giant foxtail, Setaria faberi); experiment: Test A postemergence, Foxtail, Giant; conditions: Postemergence, 0 to 100 scale (0 no effect, 100 complete control)
Outline: as §1

[10] = tested on: pigweed (Amaranthus retroflexus); experiment: Test A postemergence, pigweed; conditions: Postemergence, 0 to 100 scale (0 no effect, 100 complete control)
Outline: as §1

[11] = tested on: galium (catchweed bedstraw, Galium aparine); experiment: Test A postemergence, galium; conditions: Postemergence, 0 to 100 scale (0 no effect, 100 complete control)
Outline: as §1

[12] = tested on: ragweed (common ragweed, Ambrosia artemisiifolia); experiment: Test A postemergence, ragweed; conditions: Postemergence, 0 to 100 scale (0 no effect, 100 complete control)
Outline: as §1

kochia (Bassia scoparia) [13] = experiment: Test A postemergence, kochia; conditions: Postemergence, 0 to 100 scale (0 no effect, 100 complete control)
Outline: as §1

[14] = tested on: Ryegrass, Italian (Italian ryegrass, Lolium multiflorum); experiment: Test A postemergence, Ryegrass, Italian; conditions: Postemergence, 0 to 100 scale (0 no effect, 100 complete control)
Outline: as §1

corn (Zea mays) = experiment: Test A postemergence, corn; conditions: Postemergence, 0 to 100 scale (0 no effect, 100 complete control)
Outline: as §1

[15] = tested on: barnyardgrass (Echinochloa crus-galli); experiment: Test A preemergence, barnyardgrass; conditions: Preemergence; for Plant response rating, Barnyardgrass: 0 to 100 scale (0 no effect, 100 complete control); for Barnyardgrass plant response rating: visual injury on 0 to 100 scale (0 no effect, 100 complete control), approximately 10 days
Outline: as §1

[16] = 500 g ai/ha, visual injury approx. 10 days
[17] = 125 g ai/ha, visual injury, approx. 10 days
[18] = 125 g ai/ha, visual injury approx. 10 days
[19] = 500 g ai/ha, visual injury, approx. 10 days
[20] = 500 g ai/ha, visual injury vs untreated controls after approx. 10 days

With `Cc1cc(Cl)c(C(=O)N2CCCCC2)cc1N(S(=O)(=O)C(F)(F)F)S(=O)(=O)C(F)(F)F` [Compound 253] the “Plant response rating, Wheat” value ([1]; 125 g ai/ha) was 0, the “Plant response rating, Wheat” value [1, 16] was 0 and the “Plant response rating, Ragweed” value [2, 17] was 40. For the same compound, the “Ragweed plant response rating” value ([2]; 500 g ai/ha) was 40, the “Plant response rating, Barnyardgrass” value ([3]; 125 g ai/ha) was 0 and the “Plant response rating, Barnyardgrass” value [3, 16] was 20. The “Plant response rating, Kochia” value (kochia (Bassia scoparia) [4]; [17]) was 70, the “Kochia plant response rating” value (kochia (Bassia scoparia) [4]; 500 g ai/ha) was 80 and the “Plant response rating, Ryegrass, Italian” value [5, 17] was 60. For the same compound, the “Ryegrass, Italian plant response rating” value ([5]; 500 g ai/ha) was 100, the “Plant response rating, Blackgrass” value ([6]; 125 g ai/ha) was 0 and the “Plant response rating, Blackgrass” value [6, 16] was 0. The “Plant response rating, Pigweed” value [7, 17] was 100, the “Pigweed plant response rating” value ([7]; 500 g ai/ha) was 100 and the “Plant response rating, Foxtail, Giant” value [8, 17] was 100. For the same compound, the “Foxtail, Giant plant response rating” value ([8]; 500 g ai/ha) was 100, the “Plant response rating, Foxtail, Giant” value ([9]; 125 g ai/ha) was 0 and the “Plant response rating, Foxtail, Giant” value [9, 16] was 0. The “Plant response rating, Pigweed” value ([10]; 125 g ai/ha) was 50, the “Plant response rating, Pigweed” value [10, 16] was 80 and the “Plant response rating, Galium” value ([11]; 125 g ai/ha) was 70. For the same compound, the “Plant response rating, Galium” value [11, 16] was 90, the “Plant response rating, Ragweed” value ([12]; 125 g ai/ha) was 30 and the “Plant response rating, Ragweed” value [12, 16] was 50. For the same compound, the “Plant response rating, Kochia” value (kochia (Bassia scoparia) [13]; 125 g ai/ha) was 30, the “Plant response rating, Kochia” value (kochia (Bassia scoparia) [13]; [16]) was 60 and the “Plant response rating, Ryegrass, Italian” value ([14]; 125 g ai/ha) was 0. The “Plant response rating, Ryegrass, Italian” value [14, 16] was 0, the “Plant response rating, Corn” value (corn (Zea mays); 125 g ai/ha) was 0 and the “Plant response rating, Corn” value (corn (Zea mays); [16]) was 0. For the same compound, the “Plant response rating, Barnyardgrass” value [15, 17] was 60 and the “Barnyardgrass plant response rating” value ([15]; 500 g ai/ha) was 70.
For `CCn1cc(-c2cc(N(S(=O)(=O)C(F)(F)F)S(=O)(=O)C(F)(F)F)c(C)cc2C)c(=O)n(CC)c1=O` [Compound 43], the “Plant response rating, Wheat” value [1, 18] was 70, the “Plant response rating, Wheat” value [1, 19] was 70 and the “Ragweed plant response rating” value ([2]; 125 g ai/ha) was 0. The “Plant response rating, Ragweed” value ([2]; 500 g ai/ha) was 0, the “Plant response rating, Barnyardgrass” value [3, 18] was 90 and the “Plant response rating, Barnyardgrass” value [3, 19] was 90. The “Kochia plant response rating” value (kochia (Bassia scoparia) [4]; 125 g ai/ha) was 0, the “Plant response rating, Kochia” value (kochia (Bassia scoparia) [4]; 500 g ai/ha) was 90 and the “Ryegrass, Italian plant response rating” value ([5]; 125 g ai/ha) was 100. The “Plant response rating, Ryegrass, Italian” value ([5]; 500 g ai/ha) was 100, the “Plant response rating, Blackgrass” value [6, 18] was 70 and the “Plant response rating, Blackgrass” value [6, 19] was 90. For the same compound, the “Pigweed plant response rating” value ([7]; 125 g ai/ha) was 20, the “Plant response rating, Pigweed” value ([7]; 500 g ai/ha) was 60 and the “Foxtail, Giant plant response rating” value ([8]; 125 g ai/ha) was 100. The “Plant response rating, Foxtail, Giant” value ([8]; 500 g ai/ha) was 100, the “Plant response rating, Foxtail, Giant” value [9, 18] was 90 and the “Plant response rating, Foxtail, Giant” value [9, 19] was 90. The “Plant response rating, Pigweed” value [10, 18] was 80, the “Plant response rating, Pigweed” value [10, 19] was 80 and the “Plant response rating, Galium” value [11, 18] was 70. For the same compound, the “Plant response rating, Galium” value [11, 19] was 90, the “Plant response rating, Ragweed” value [12, 18] was 60 and the “Plant response rating, Ragweed” value [12, 19] was 60. For the same compound, the “Plant response rating, Kochia” value (kochia (Bassia scoparia) [13]; [18]) was 20, the “Plant response rating, Kochia” value (kochia (Bassia scoparia) [13]; [19]) was 40 and the “Plant response rating, Ryegrass, Italian” value [14, 18] was 20. For the same compound, the “Plant response rating, Ryegrass, Italian” value [14, 19] was 50, the “Plant response rating, Corn” value (corn (Zea mays); [18]) was 10 and the “Plant response rating, Corn” value (corn (Zea mays); [19]) was 80. The “Barnyardgrass plant response rating” value ([15]; 125 g ai/ha) was 90 and the “Plant response rating, Barnyardgrass” value ([15]; 500 g ai/ha) was 100.
`Cc1cc(C)c(C(=O)N2CCC3(CCCC3)C2)cc1NS(=O)(=O)C(F)(F)F` [Compound 225] was tested, and the “Plant response rating, Wheat” value ([1]; 125 g ai/ha) was 0, the “Wheat plant response rating” value [1, 20] was 0 and the “Plant response rating, Ragweed” value [2, 17] was 30. The “Plant response rating, Ragweed” value ([2]; 500 g ai/ha) was 90, the “Plant response rating, Barnyardgrass” value ([3]; 125 g ai/ha) was 0 and the “Barnyardgrass plant response rating” value [3, 20] was 10. For the same compound, the “Plant response rating, Kochia” value (kochia (Bassia scoparia) [4]; [17]) was 0, the “Plant response rating, Kochia” value (kochia (Bassia scoparia) [4]; 500 g ai/ha) was 40 and the “Plant response rating, Ryegrass, Italian” value [5, 17] was 70. For the same compound, the “Plant response rating, Ryegrass, Italian” value ([5]; 500 g ai/ha) was 100, the “Plant response rating, Blackgrass” value ([6]; 125 g ai/ha) was 0 and the “Blackgrass plant response rating” value [6, 20] was 20. The “Plant response rating, Pigweed” value [7, 17] was 70, the “Plant response rating, Pigweed” value ([7]; 500 g ai/ha) was 100 and the “Plant response rating, Foxtail, Giant” value [8, 17] was 90. The “Plant response rating, Foxtail, Giant” value ([8]; 500 g ai/ha) was 100, the “Plant response rating, Foxtail, Giant” value ([9]; 125 g ai/ha) was 0 and the “Foxtail, Giant plant response rating” value [9, 20] was 0. The “Plant response rating, Pigweed” value ([10]; 125 g ai/ha) was 90, the “Pigweed plant response rating” value [10, 20] was 30 and the “Plant response rating, Galium” value ([11]; 125 g ai/ha) was 50. The “Galium plant response rating” value [11, 20] was 80, the “Plant response rating, Ragweed” value ([12]; 125 g ai/ha) was 20 and the “Ragweed plant response rating” value [12, 20] was 40. The “Plant response rating, Kochia” value (kochia (Bassia scoparia) [13]; 125 g ai/ha) was 0, the “Kochia plant response rating” value (kochia (Bassia scoparia) [13]; [20]) was 10 and the “Plant response rating, Ryegrass, Italian” value ([14]; 125 g ai/ha) was 60. The “Ryegrass, Italian plant response rating” value [14, 20] was 40, the “Plant response rating, Corn” value (corn (Zea mays); 125 g ai/ha) was 0 and the “Corn plant response rating” value (corn (Zea mays); [20]) was 0. For the same compound, the “Plant response rating, Barnyardgrass” value [15, 17] was 70 and the “Plant response rating, Barnyardgrass” value ([15]; 500 g ai/ha) was 90.

— patent US20230278972A1, “SUBSTITUTED HALOALKYL SULFONANILIDE HERBICIDES” (FMC Corporation, priority 2020, published 2023)
